Tested on: ALP in NHAC (normal human articular chondrocytes)
Test: Alkaline Phosphatase (ALP) activity assay: ALP staining and quantitation in NHACs (prevention of chondrocyte hypertrophy)
Type: cell-based
Details: Chondrocyte, 288 h, human IL-1 beta 10 ng/mL, 12 days; for IC50: Fast Blue RR staining, high content imaging; for Emax: read-out: ALP in NHAC (% Efficacy)
Description: The compounds of the present invention were evaluated in the Alkaline Phosphatase (ALP) activity assay to determine the ability of the compounds to prevent chondrocyte hypertrophy in normal human articular chondrocytes (NHACs).
Normal human articular chondrocytes (NHACs) were purchased from PromoCell (Heidelberg, Germany) and grown in Chondrocyte Growth Medium (CGM; Lonza, Walkersville, Md.).
NHACs were expanded in Chondrocyte Growth Medium (CGM) from Lonza until they reached a 60-80% confluency. To initiate differentiation, 7,500 cells were plated/well with indicated test compound dose in 384-well Cell Carrier Ultra plates (Perkin Elmer) with DMEM (SH30022—HyClone) containing 10% FBS (35-015-CV—Corning), 1% Pen/Strep antibiotics (SV30010—HyClone), and 1% Normocin (50 mg/mL—InvivoGen). Cells with test compounds were incubated at 37° C., 5% CO2 for 5 hours and then added human IL-1 beta (AF-200-1B—Peprotech) to each well at a final concentration of 10 ng/mL and incubated at 37° C., 5% CO2 for 12 days.
To detect the presence of hypertrophic cells, NHACs were fixed with 4% paraformaldehyde and Hoechst 33342 (Invitrogen) dye for 30 minutes, rinsed in PBS, then stained with Fast Blue RR Salt (F0500—Sigma) with Naphthol AS-MX Phosphate Alkaline Solution, 0.25% (855—Sigma-Aldrich).
The staining was imaged by fluoresecent microscopy, using the 561 nm wavelength, and/or quantified by high content imaging with the ImageXpress Confocal (Molecular Devices, Sunnyvale, CA). Data analyses were performed with a customized multiwavelength cell-scoring application The activity of the compounds of the present invention in the ALP assay is summarized in Table 2.

| SMILES | IC50 [µM] | Emax [%] |
| --- | --- | --- |
| CCOc1cc(C(F)(F)F)cc(NC(=O)[C@]23C[C@@]2(c2ccnc(OC)c2)[C@H]2O[C@@H]3C[C@@H]2O)n1 (racemic) [Example 25, rac-(1R,2R,4S,5R,6S)—N-(6-ethoxy-4-(trifluoromethyl)pyridin-2-yl)-6-hydroxy-4-(2-methoxypyridin-4-yl)-8-oxatricyclo[3.2.1.02,4]octane-2-carboxamide] | > 30 | 0 |
| Cc1ccc(C(F)(F)F)cc1NC(=O)[C@]12C[C@@]1(c1ccnc(F)c1)[C@H]1O[C@@H]2C[C@@H]1O (racemic) [Example 13, rac-(1R,2R,4S,5R,6S)-4-(2-fluoropyridin-4-yl)-6-hydroxy-N-(2-methyl-5-(trifluoromethyl)phenyl)-8-oxatricyclo[3.2.1.02,4]octane-2-carboxamide] | > 30 | 40 |
| COc1cc([C@@]23C[C@]2(C(=O)Nc2cc(C)cc(C(F)(F)F)c2)[C@H]2C[C@H](O)[C@@H]3O2)ccn1 (racemic) [Example 29, rac-(1R,2R,4S,5R,6S)-6-hydroxy-4-(2-methoxypyridin-4-yl)-N-(3-methyl-5-(trifluoromethyl)phenyl)-8-oxatricyclo[3.2.1.02,4]octane-2-carboxamide] | 10 | 74 |
| COc1ccc(NC(=O)[C@]23C[C@@]2(c2cn(C)nc2C(F)(F)F)[C@H]2O[C@@H]3C[C@@H]2O)cc1C(F)(F)F (racemic) [Example 60, rac-(1R,2R,4S,5R,6S)-6-hydroxy-N-(4-methoxy-3-(trifluoromethyl)phenyl)-4-(1-methyl-3-(trifluoromethyl)-1H-pyrazol-4-yl)-8-oxatricyclo[3.2.1.02,4]octane-2-carboxamide] | > 30 | 27 |
| N#Cc1cc(NC(=O)[C@]23C[C@@]2(c2ccnc(F)c2)[C@H]2O[C@@H]3C[C@@H]2O)cc(C(F)(F)F)c1 (racemic) [Example 77, rac-(1R,2R,4S,5R,6S)—N-(3-cyano-5-(trifluoromethyl)phenyl)-4-(2-fluoropyridin-4-yl)-6-hydroxy-8-oxatricyclo[3.2.1.02,4]octane-2-carboxamide] | > 30 | 29 |
| COc1cc([C@@]23C[C@]2(C(=O)Nc2cc(C(F)(F)F)c(Cl)cn2)[C@H]2C[C@H](O)[C@@H]3O2)ccn1 (racemic) [Example 22, rac-(1R,2R,4S,5R,6S)—N-(5-chloro-4-(trifluoromethyl)pyridin-2-yl)-6-hydroxy-4-(2-methoxypyridin-4-yl)-8-oxatricyclo[3.2.1.02,4]octane-2-carboxamide] | > 30 | 27 |
| COc1ccc(C(F)(F)F)cc1NC(=O)[C@]12C[C@@]1(c1cn(C)nc1C(F)(F)F)[C@H]1O[C@@H]2C[C@@H]1O (racemic) [Example 62, rac-(1R,2R,4S,5R,6S)-6-hydroxy-N-(2-methoxy-5-(trifluoromethyl)phenyl)-4-(1-methyl-3-(trifluoromethyl)-1H-pyrazol-4-yl)-8-oxatricyclo[3.2.1.02,4]octane-2-carboxamide] | > 30 | 26 |
| COc1cc([C@@]23C[C@]2(C(=O)Nc2cc(C(F)(F)F)cc(C)n2)[C@H]2C[C@H](O)[C@@H]3O2)ccn1 (racemic) [Example 24, rac-(1R,2R,4S,5R,6S)-6-hydroxy-4-(2-methoxypyridin-4-yl)-N-(6-methyl-4-(trifluoromethyl)pyridin-2-yl)-8-oxatricyclo[3.2.1.02,4]octane-2-carboxamide] | > 30 | 25 |
| Cn1cc([C@@]23C[C@]2(C(=O)Nc2cc(C(F)(F)F)ccc2F)[C@H]2C[C@H](O)[C@@H]3O2)c(C(F)(F)F)n1 (racemic) [Example 57, rac-(1R,2R,4S,5R,6S)-N-(2-fluoro-5-(trifluoromethyl)phenyl)-6-hydroxy-4-(1-methyl-3-(trifluoromethyl)-1H-pyrazol-4-yl)-8-oxatricyclo[3.2.1.02,4]octane-2-carboxamide] | > 30 | 24 |
| Cc1cc(NC(=O)[C@]23C[C@@]2(c2ccnc(F)c2)[C@H]2O[C@@H]3C[C@@H]2O)cc(C(F)(F)F)c1 (racemic) [Example 12, rac-(1R,2R,4S,5R,6S)-4-(2-fluoropyridin-4-yl)-6-hydroxy-N-(3-methyl-5-(trifluoromethyl)phenyl)-8-oxatricyclo[3.2.1.02,4]octane-2-carboxamide] | > 30 | 21 |
| O=C(Nc1cc(C(F)(F)F)ccc1F)[C@]12C[C@@]1(c1ccnc(F)c1)[C@H]1O[C@@H]2C[C@@H]1O (racemic) [Example 17, rac-(1R,2R,4S,5R,6S)—N-(2-fluoro-5-(trifluoromethyl)phenyl)-4-(2-fluoropyridin-4-yl)-6-hydroxy-8-oxatricyclo[3.2.1.02,4]octane-2-carboxamide] | > 30 | 17 |
| O=C(Nc1cc(C(F)(F)F)cc(C2CC2)n1)[C@]12C[C@@]1(c1ccnc(F)c1)[C@H]1O[C@@H]2C[C@@H]1O (racemic) [Example 6, rac-(1R,2R,4S,5R,6S)—N-(6-cyclopropyl-4-(trifluoromethyl)pyridin-2-yl)-4-(2-fluoropyridin-4-yl)-6-hydroxy-8-oxatricyclo[3.2.1.02,4]octane-2-carboxamide] | > 30 | 9 |
| CCOc1cc(C(F)(F)F)cc(NC(=O)[C@]23C[C@@]2(c2ccnc(F)c2)[C@H]2O[C@@H]3C[C@@H]2O)n1 (racemic) [Example 8, rac-(1R,2R,4S,5R,6S)—N-(6-ethoxy-4-(trifluoromethyl)pyridin-2-yl)-4-(2-fluoropyridin-4-yl)-6-hydroxy-8-oxatricyclo[3.2.1.02,4]octane-2-carboxamide] | > 30 | 26 |
| O=C(Nc1cccc(C(F)(F)F)c1F)[C@]12C[C@@]1(c1ccnc(F)c1)[C@H]1O[C@@H]2C[C@@H]1O (racemic) [Example 14, rac-(1R,2R,4S,5R,6S)—N-(2-fluoro-3-(trifluoromethyl)phenyl)-4-(2-fluoropyridin-4-yl)-6-hydroxy-8-oxatricyclo[3.2.1.02,4]octane-2-carboxamide] | > 30 | 8 |
| O=C(Nc1ccc(Cl)c(C(F)(F)F)c1)[C@]12C[C@@]1(c1ccnc(F)c1)[C@H]1O[C@@H]2C[C@@H]1O (racemic) [Example 18, rac-(1R,2R,4S,5R,6S)—N-(4-chloro-3-(trifluoromethyl)phenyl)-4-(2-fluoropyridin-4-yl)-6-hydroxy-8-oxatricyclo[3.2.1.02,4]octane-2-carboxamide] | > 30 | 25 |
| COc1cc([C@@]23C[C@]2(C(=O)Nc2cccc(C(F)(F)F)c2F)[C@H]2C[C@H](O)[C@@H]3O2)ccn1 (racemic) [Example 31, rac-(1R,2R,4S,5R,6S)—N-(2-fluoro-3-(trifluoromethyl)phenyl)-6-hydroxy-4-(2-methoxypyridin-4-yl)-8-oxatricyclo[3.2.1.02,4]octane-2-carboxamide] | > 30 | 15 |
| O=C(Nc1cc(C(F)(F)F)cc(Cl)n1)[C@]12C[C@@]1(c1ccnc(F)c1)[C@H]1O[C@@H]2C[C@@H]1O (racemic) [Example 4, rac-(1R,2R,4S,5R,6S)—N-(6-chloro-4-(trifluoromethyl)pyridin-2-yl)-4-(2-fluoropyridin-4-yl)-6-hydroxy-8-oxatricyclo[3.2.1.02,4]octane-2-carboxamide] | > 30 | 0 |
| COc1cc([C@@]23C[C@]2(C(=O)Nc2cc(F)cc(C(F)(F)F)c2)[C@H]2C[C@H](O)[C@@H]3O2)ccn1 (racemic) [Example 73, rac-(1R,2R,4S,5R,6S)—N-(3-fluoro-5-(trifluoromethyl)phenyl)-6-hydroxy-4-(2-methoxypyridin-4-yl)-8-oxatricyclo[3.2.1.02,4]octane-2-carboxamide] | > 30 | 49 |
| O=C(Nc1cc(Cl)cc(C(F)(F)F)c1)[C@]12C[C@@]1(c1ccnc(F)c1)[C@H]1O[C@@H]2C[C@@H]1O (racemic) [Example 19, rac-(1R,2R,4S,5R,6S)—N-(3-chloro-5-(trifluoromethyl)phenyl)-4-(2-fluoropyridin-4-yl)-6-hydroxy-8-oxatricyclo[3.2.1.02,4]octane-2-carboxamide] | > 30 | 0 |
| O=C(Nc1ccc(C(F)(F)F)c(Cl)c1)[C@]12C[C@@]1(c1ccnc(F)c1)[C@H]1O[C@@H]2C[C@@H]1O (racemic) [Example 3, rac-(1R,2R,4S,5R,6S)—N-(3-chloro-4-(trifluoromethyl)phenyl)-4-(2-fluoropyridin-4-yl)-6-hydroxy-8-oxatricyclo[3.2.1.02,4]octane-2-carboxamide] | 12 | 71 |
| Cn1cc([C@@]23C[C@]2(C(=O)Nc2cc(C(F)(F)F)c(Cl)cn2)[C@H]2C[C@H](O)[C@@H]3O2)c(C(F)(F)F)n1 (racemic) [Example 45, rac-(1R,2R,4S,5R,6S)—N-(5-chloro-4-(trifluoromethyl)pyridin-2-yl)-6-hydroxy-4-(1-methyl-3-(trifluoromethyl)-1H-pyrazol-4-yl)-8-oxatricyclo[3.2.1.02,4]octane-2-carboxamide] | > 30 | 46 |

Reference: patent US12365692B2, “6-hydroxy-8-oxatricyclo[3.2.1.02,4]octane-2-carboxamide derivatives for inducing chondrogenesis for treating joint damage” (NOVARTIS AG, priority 2018, dated 2025)
